In US20050065064A1, “Identification of allosteric peptide agonists of CXCR4” (priority 2002, published 2005):
Values belong to the molecule of their own block, whether it stands above or below them. Where a SMILES comes first, the peptide text is derived from it.

What was measured:
HIV-1 = conditions: in vitro; reference (58); cited from earlier work
CXCR4 [1] = biological target: T1, CXCR4 (Homo sapiens, UniProt P61073); experiment: Yeast growth / colony formation in histidine-deficient medium (FUS1-HIS3); assay type: cell-based; design: The plasmid Cp4181 contains the CXCR4 gene under the control of the constitutive phosphoglycerate kinase (PGK1) promoter; expressed in transfected cells; host or cells: Saccharomyces cerevisiae CY12946 derivatives YAS2 / YAS3 (plasmid Cp4181)
Description: All basic media were prepared essentially as described (24). In cases where plasmid selection was necessary, media that lacked uracil, leucine, or tryptophan or an appropriate combination of these nutrients were employed. Library screening was performed in plates that lacked histidine and contained 3-amino-1,2,4-triazole (Sigma), which suppresses the basal level of histidine biosynthesis due to the activity of the FUS1 promoter.
A number of genes for biosynthetic enzymes have been mutated to allow selection of the corresponding marker on a plasmid transformed into the yeast strain. The genomic HIS3 gene, coding for an enzyme essential for the biosynthesis of histidine, has been disrupted by an insertion. The wild-type HIS3 gene has been placed under the control of the pheromone-responsive FUS1 promoter; as a result activation of CXCR4 enables cells to grow in media lacking histidine. To reduce false positives due to any basal activity of FUS1-HIS3,3-amino-1,2,4-triazole, an inhibitor of the enzyme coded by HIS3, is present at low levels in the media during agonist selection. […] Furthermore, the CXCR4 antagonist AMD3100 (34) inhibited YAS2 colony formation (data not shown) and β-galactosidase activity in response to SDF-1α (FIG. 2C).
Target sequence in this assay (P61073 whole entry): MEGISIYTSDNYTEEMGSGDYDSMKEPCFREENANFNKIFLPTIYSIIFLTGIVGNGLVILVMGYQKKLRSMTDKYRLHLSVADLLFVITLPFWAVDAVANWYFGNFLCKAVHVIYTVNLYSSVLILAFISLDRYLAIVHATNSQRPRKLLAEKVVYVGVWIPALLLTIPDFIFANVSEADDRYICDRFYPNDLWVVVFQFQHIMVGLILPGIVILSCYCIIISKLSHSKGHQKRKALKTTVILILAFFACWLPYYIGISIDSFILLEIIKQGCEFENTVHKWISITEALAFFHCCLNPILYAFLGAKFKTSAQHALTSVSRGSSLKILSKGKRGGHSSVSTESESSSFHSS

[2] = references (55), (56); cited from earlier work
CXCR4 [3] = biological target: T1, CXCR4; experiment: β-galactosidase assay in yeast expressing CXCR4 (FUS1-lacZ reporter); assay type: cell-based; design: The plasmid Cp4181 contains the CXCR4 gene under the control of the constitutive phosphoglycerate kinase (PGK1) promoter; expressed in transfected cells; host or cells: Saccharomyces cerevisiae CY12946 derivatives YAS2 / YAS3 (plasmid Cp4181)
Text: The initial S. cerevisiae strain was CY12946 (MATα FUS1p-HIS3 GPA1Gαi2(5) canI farIΔI442 his3 leu2 sst2Δ2 ste14::trp1::LYS2 ste3Δ1156 tbt1-1 trp1 ura3) (23). Except for the specific chimeric Ga subunit expressed, CY12946 is genetically similar to CY1141, reported in Klein et al. (18), with two differences. First, the two strains express different Gα subunits. Specifically, CY12946 expresses a chimeric Gα subunit (GPA1Gαi2(5)) in which the C-terminal 5 amino acids of the yeast Ga subunit, GPA1, are replaced by the C-terminal 5 residues of Gαi2. In contrast, as described by Klein et al. (18), CY1141 expresses a chimeric Ga subunit (GPA1(41)Gαi2) in which the N-terminal 33 residues of Gαi2 are replaced by the 41 N-terminal residues of GPA1. We have used CY12946 in the current report because GPA1Gαi2(5) is more efficient than GPA1(41)Gαi2 in coupling CXCR4 to the pheromone response pathway. The use of GPA1Gαi2(5) necessitated deletion of SST2, which down-regulates the pheromone response pathway by accelerating the GTPase activity of GPA1. Thus, the second difference between CY12946 and CY1141 is the presence of an sst2 deletion allele in CY12946. All plasmids were 2μ-derived and contained a REP3 element for autonomous replication in S. cerevisiae and AmPR for selection in Escherichia coli. The plasmid Cp4181 contains the CXCR4 gene under the control of the constitutive phosphoglycerate kinase (PGK1) promoter and a LEU2 selectable marker. […] It also contains the TRP1 selectable marker. Cp6160 expresses full length wild-type SDF-1α in yeast under the control of the constitutive alcohol dehydrogenase (ADH1) promoter. The α-factor signal sequence is cloned at the 5′-end of the SDF sequence to allow secretion of the mature polypeptide. The vector also has the URA3 selectable marker allowing transformed cells to grow in media deficient in uracil. For expression of the 17-mer peptide library, Cp6293 was used. This URA3+plasmid was derived from Cp6160 and contains a frameshift in the SDF-1α sequence so that no functional protein is expressed unless an insert is appropriately cloned. The cDNA coding for 17-mer peptides was cloned using the restriction sites HindIII and Acc65I, which also results in the secretion of the mature peptide. S. cerevisiae strains YAS1, YAS2, YAS3 were constructed by transforming CY12946 with Cp1584, Cp1584/Cp4181 and Cp1584/Cp4181/Cp6160, respectively.
The liquid beta-galactosidase assays were performed essentially as described in (24) or (27) with the following modification. After growth in the appropriate medium, 5 ml of cells displaying the agonist phenotype were centrifuged (2500 rpm for 5 min) and resuspended in 0.5 ml as described (28).
To identify allosteric peptide agonists or modulators of CXCR4, it was necessary to establish an assay that could isolate molecules with the desired properties from a large peptide library. The screen that was used consisted of two steps. The first step was to isolate peptide sequences from a synthetic cDNA library that would allow cells to grow only after activation of CXCR4. A second step was required that would segregate agonists that bind to the native active site from those that bind to allosteric sites. This step involved an agonist assay in the presence of a receptor antagonist. A number of genetic modifications made to S. cerevisiae allowed it to be used for monitoring the interactions of peptides or proteins with CXCR4 (FIG. 1). […]
Target sequence in this assay (P61073 whole entry): as above

CCRF-CEM cells = experiment: Chemotaxis assay (transwell) on CCRF-CEM cells; assay type: cell-based, human
Description: The CCRF-CEM acute lymphoblastic leukemia cell line was previously shown to express CXCR4 and to migrate in response to SDF-1α (31). The procedure involved cells that were ˜70-80% confluent and were centrifuged at 1000 rpm for 5 min and resuspended at a concentration of ˜10^7 cells/ml. The transwell system (Corning-Costar^R) was used for quantifying the chemotactic response. Six hundred μl of solution with different concentrations of a CXCR4 agonist were added to the bottom of the wells of 24-well culture plates. One hundred μl of the cell suspension was aliquoted in the transwell cups and inserted in the wells. The bottom of the cups is layered with a membrane that has a 5 μm pore size and allows cell movement towards the higher concentration of chemoattractant. The cells were incubated for 2h at 37° C., after which the migrated cells were collected and counted with an electronic particle counter (Coulter^R). In cases where the effect of neutralization by CXCR4 monoclonal antibodies or antagonists was examined, the inhibitor was added to the upper compartment along with the cells.

CXCR4 [4] = biological target: T1, CXCR4; experiment: Flow cytometry of CXCR4 surface levels (12G5 indirect staining); assay type: cell-based
Description: Flow cytometric analysis of cell subpopulations was performed using a FACS Vantage flow cytometer (Becton-Dickinson Immunocytometry Systems, San Jose, Calif.) for detection of CXCR4 surface expression with the 12G5 monoclonal antibody. An indirect staining protocol was used. Briefly, after a 90 min incubation with various agents, the cells were washed and resuspended in PBS. Nonspecific (Fc-mediated) binding was blocked using purified rat IgG. The primary antibody (12G5, a mouse IgG2a antibody) was added at 1 μg/ml for 45 min. After centrifugation the cells were resuspended in PBS and the secondary antibody (FITC-linked rat anti-mouse IgG2a) was added at 10 μg/ml for 45 min. The cells were fixed with 2% formaldehyde (in PBS) and used within 2 days for data acquisition. Mouse IgG2a was used as an isotype control. For the fluorescence measurements the cells were excited at 488 nm. The FITC fluorescence was collected through a 530/30 nm band pass filter. A minimum of 15,000 cells were examined for each sample. Analysis of data was performed using the CellQuest software (Becton-Dickinson).
Target sequence in this assay (P61073 whole entry): as above

CXCR4 [5] = experiment: β-galactosidase assay in yeast expressing CXCR4 (FUS1-lacZ reporter); assay type: cell-based, human; conditions: yeast lacking CXCR4; data not shown
Text: The initial S. cerevisiae strain was CY12946 (MATα FUS1p-HIS3 GPA1Gαi2(5) canI farIΔI442 his3 leu2 sst2Δ2 ste14::trp1::LYS2 ste3Δ1156 tbt1-1 trp1 ura3) (23). Except for the specific chimeric Ga subunit expressed, CY12946 is genetically similar to CY1141, reported in Klein et al. (18), with two differences. First, the two strains express different Gα subunits. Specifically, CY12946 expresses a chimeric Gα subunit (GPA1Gαi2(5)) in which the C-terminal 5 amino acids of the yeast Ga subunit, GPA1, are replaced by the C-terminal 5 residues of Gαi2. In contrast, as described by Klein et al. (18), CY1141 expresses a chimeric Ga subunit (GPA1(41)Gαi2) in which the N-terminal 33 residues of Gαi2 are replaced by the 41 N-terminal residues of GPA1. We have used CY12946 in the current report because GPA1Gαi2(5) is more efficient than GPA1(41)Gαi2 in coupling CXCR4 to the pheromone response pathway. The use of GPA1Gαi2(5) necessitated deletion of SST2, which down-regulates the pheromone response pathway by accelerating the GTPase activity of GPA1. Thus, the second difference between CY12946 and CY1141 is the presence of an sst2 deletion allele in CY12946. All plasmids were 2μ-derived and contained a REP3 element for autonomous replication in S. cerevisiae and AmPR for selection in Escherichia coli. […]

CXCR4 [6] = biological target: T1, CXCR4; conditions: reference (31); cited from earlier work
Target sequence in this assay (P61073 whole entry, species assumed): as the sequence (P61073 whole entry) above

Molecule: c1cc(CN2CCCNCCNCCCNCC2)ccc1CN1CCCNCCNCCCNCC1 [AMD3100, reference compound]
- interaction between T-20 and AMD3100 (HIV-1): strong in vitro synergy
- YAS2 colony formation (CXCR4 [1]; in response to SDF-1α, data not shown): inhibited
- toxicity / adverse effects in clinical trials [2]: cardiac toxicity
- effect on basal level of the pheromone-responsive Fus1 promoter (CXCR4 [3]; AMD3100 1 μM (FIG. 2C)): does not effect the basal level
- inhibition of β-galactosidase activity in response to SDF-1α (CXCR4 [3]; AMD3100 1 μM, SDF-1α 100 nM (FIG. 2C)): inhibited

- EC50 (CCRF-CEM cells; CCRF-CEM cells (FIG. 4A, 4B), read-out: apparent EC50, chemotaxis): > 60 µM
- resistance of β-galactosidase activity to AMD3100 (CXCR4 [3]; peptide-expressing yeast clones): resistance to AMD3100
- effect on CXCR4 levels on the cell surface (CXCR4 [4]; 90 min incubation, SDF-Fc 1 μM, RSVM 200 μM, ASLW 100 μM (FIG. 8A-C)): only aminor decrease
Molecule: CC(C)C[C@H](NC(=O)[C@H](CO)NC(=O)[C@H](C)N)C(=O)N[C@@H](Cc1c[nH]c2ccccc12)C(=O)N[C@@H](CC(C)C)C(=O)N[C@@H](CO)C(=O)N[C@@H](Cc1ccc(O)cc1)C(=O)N[C@@H](CCCNC(=N)N)C(=O)N[C@@H](CS)C(=O)N1CCC[C@H]1C(=O)N[C@@H](CS)C(=O)N[C@@H](CCCNC(=N)N)C(=O)N[C@@H](Cc1ccccc1)C(=O)N[C@@H](Cc1ccccc1)C(=O)N[C@@H](CCC(=O)O)C(=O)N[C@@H](CO)C(=O)N[C@@H](Cc1c[nH]cn1)C(=O)O [ASLW] (H-ASLWLSYRCPCRFFESH-OH; N-terminus and C-terminus assumed)
- agonist character in chemotaxis (chemotactic index relative to SDF-Fc) (CCRF-CEM cells; CCRF-CEM cells): superagonist activity
- chemotactic activity combined with SDF-Fc (CCRF-CEM cells; CCRF-CEM cells (FIG. 4D)): approximately additive
- chemotaxis in the presence of the two peptide agonists ASLW and RSVM (CCRF-CEM cells; CCRF-CEM cells (FIG. 4E)): additive
- effect of AMD3100 on chemotactic activity of the agonist (CCRF-CEM cells; CCRF-CEM cells, AMD3100 up to 100 μg/ml (~115 μM)): Strong resistance to inhibition
- effect of T140 on chemotactic activity of the agonist (CCRF-CEM cells; CCRF-CEM cells, T140 up to concentrations comparable to the agonists): does not inhibit
- effect of antibody 44717.111 on chemotactic activity of the agonist (CCRF-CEM cells; CCRF-CEM cells, up to 50 μg/ml for the peptides, ten-fold lower for SDF-Fc): neither RSVM- nor ASLW-mediated chemotactic activity is significantly affected
- β-galactosidase activity on endogenous expression of the peptide (CXCR4 [3]; yeast strains with or without CXCR4 (FIG. 3)): significant increase of β-galactosidase activity only in the strain that co-expresses CXCR4
- concentration dependence of the effect on CXCR4 surface levels (CXCR4 [4]; FIG. 8D, 8E): No significant concentration-dependent response

- response of strain without the receptor (YAS 1) (CXCR4 [5]): does not respond
Molecule: SDF-1α
- growth in the absence of histidine (CXCR4 [1]; endogenously expressed SDF-1α, strain expressing CXCR4 (FIG. 2A)): allows the strain expressing CXCR4 to grow in the absence of this amino acid
- EC50 (CXCR4 [6]): 0.001 to 0.01 µM
- induction of β-galactosidase activity (CXCR4 [3]; HIS3-/CXCR4+ yeast with FUS1-lacZ, SDF-1α 100 nM, D-SDF-1α 100 nM, 14-mer 1 μM (FIG. 2B)): induces an increase of β-galactosidase activity
